Data published in US20110206792A1, “COMPOSITIONS COMPRISING VITAMINS” (priority 2008, published 2011).

Assay: Stability studies for Melatonin, Resveratrol and L-ascorbic acid in cosmetic serum (HPLC with diode array detection, 55 days)
Format: physicochemical
Details: for concentration in the mixed formulation: formulation containing all three compounds, unchanged over 55 days; for change of concentration/percentage over 55 days: mixed versus single component formulation, 25° C. and 40° C.
Protocol: Stability studies for Melatonin, Resveratrol and L-ascorbic acid in cosmetic serum Object of this work was the studies related to the stability of Melatonin, Resveratrol and L-ascorbic acid when individually present in formulation in comparison with a formulation in which they are simultaneously mixed together, in order to explore the potential stabilization of L-ascorbic acid by Melatonin. The stability studies were performed at 25° C. (room temperature) and 40° C. (oven) for 55 days. Four formulations were analyzed: one mixture containing the three compounds together plus 3 formulations, which individually contained the three compounds. The excipients were all the same in the four formulations. The method employed to follow formulation stability is an HPLC method with diode array detection, under gradient conditions, as specified in the previous report. The results of these studies are shown in the graphs reported in FIGS. 10, 11 and 12 as well as in the following Tables 1, 2 and 3 where the percentages of the three compounds in the formulation (p/p) are plotted against time. In particular, the percentages were determined over 55 days, by comparison with reference standard compounds.

[1] = mix (three compounds together), T = 25° C., day 0
[2] = mix (three compounds together), T = 25° C., day 2
[3] = mix (three compounds together), T = 25° C., day 44
[4] = mix (three compounds together), T = 25° C., day 48
[5] = mix (three compounds together), T = 25° C., day 50
[6] = mix (three compounds together), T = 25° C., day 55
[7] = mix (three compounds together), T = 40° C., day 0
[8] = mix (three compounds together), T = 40° C., day 42
[9] = mix (three compounds together), T = 40° C., day 44
[10] = mix (three compounds together), T = 40° C., day 48
[11] = mix (three compounds together), T = 40° C., day 51
[12] = mix (three compounds together), T = 40° C., day 55
[13] = single component formulation, T = 25° C., day 0
[14] = single component formulation, T = 25° C., day 2
[15] = single component formulation, T = 25° C., day 44
[16] = single component formulation, T = 25° C., day 48
[17] = single component formulation, T = 25° C., day 50
[18] = single component formulation, T = 25° C., day 55
[19] = single component formulation, T = 40° C., day 0
[20] = single component formulation, T = 40° C., day 42
[21] = single component formulation, T = 40° C., day 44
[22] = single component formulation, T = 40° C., day 48
[23] = single component formulation, T = 40° C., day 51
[24] = single component formulation, T = 40° C., day 55

Compound: COc1ccc2[nH]cc(CCNC(C)=O)c2c1 [Melatonin]
- concentration in the mixed formulation: 0.20%
- percentage of the compound in the formulation (p/p) [1]: 0.20%
- percentage of the compound in the formulation (p/p) [2]: 0.25%
- percentage of the compound in the formulation (p/p) [3]: 0.20%
- percentage of the compound in the formulation (p/p) [4]: 0.20%
- percentage of the compound in the formulation (p/p) [5]: 0.23%
- percentage of the compound in the formulation (p/p) [6]: 0.20%
- percentage of the compound in the formulation (p/p) [7]: 0.18%
- percentage of the compound in the formulation (p/p) [8]: 0.17%
- percentage of the compound in the formulation (p/p) [9]: 0.18%
- percentage of the compound in the formulation (p/p) [10]: 0.14%
- percentage of the compound in the formulation (p/p) [11]: 0.18%
- percentage of the compound in the formulation (p/p) [12]: 0.20%
- change of concentration/percentage over 55 days: does not change much
- concentration in the single component formulation (same concentration found after 55 days of storage at 25° C. and 40° C.): 0.28%
- percentage of the compound in the formulation (p/p) [13]: 0.28%
- percentage of the compound in the formulation (p/p) [14]: 0.33%
- percentage of the compound in the formulation (p/p) [15]: 0.30%
- percentage of the compound in the formulation (p/p) [16]: 0.26%
- percentage of the compound in the formulation (p/p) [17]: 0.31%
- percentage of the compound in the formulation (p/p) [18]: 0.30%
- percentage of the compound in the formulation (p/p) [19]: 0.26%
- percentage of the compound in the formulation (p/p) [20]: 0.25%
- percentage of the compound in the formulation (p/p) [21]: 0.25%
- percentage of the compound in the formulation (p/p) [22]: 0.29%
- percentage of the compound in the formulation (p/p) [23]: 0.29%
- percentage of the compound in the formulation (p/p) [24]: 0.28%

Compound: Oc1ccc(C=Cc2cc(O)cc(O)c2)cc1 [Resveratrol]
- concentration in the mixed formulation: 0.20%
- degradation (in 55 days, in all the conditions, formulations kept at 25° C. and 40° C.): approximately 10%
- percentage of the compound in the formulation (p/p) [1]: 0.20%
- percentage of the compound in the formulation (p/p) [2]: 0.20%
- percentage of the compound in the formulation (p/p) [3]: 0.14%
- percentage of the compound in the formulation (p/p) [4]: 0.20%
- percentage of the compound in the formulation (p/p) [5]: 0.14%
- percentage of the compound in the formulation (p/p) [6]: 0.16%
- percentage of the compound in the formulation (p/p) [7]: 0.20%
- percentage of the compound in the formulation (p/p) [8]: 0.18%
- percentage of the compound in the formulation (p/p) [9]: 0.18%
- percentage of the compound in the formulation (p/p) [10]: 0.20%
- percentage of the compound in the formulation (p/p) [11]: 0.16%
- percentage of the compound in the formulation (p/p) [12]: 0.18%
- change of concentration/percentage over 55 days: does not change significantly
- percentage of the compound in the formulation (p/p) [13]: 0.22%
- percentage of the compound in the formulation (p/p) [14]: 0.19%
- percentage of the compound in the formulation (p/p) [15]: 0.17%
- percentage of the compound in the formulation (p/p) [16]: 0.20%
- percentage of the compound in the formulation (p/p) [17]: 0.17%
- percentage of the compound in the formulation (p/p) [18]: 0.17%
- percentage of the compound in the formulation (p/p) [19]: 0.22%
- percentage of the compound in the formulation (p/p) (single component formulation, T = 40° C., day 2): 0.19%
- percentage of the compound in the formulation (p/p) [20]: 0.16%
- percentage of the compound in the formulation (p/p) [21]: 0.20%
- percentage of the compound in the formulation (p/p) [22]: 0.18%
- percentage of the compound in the formulation (p/p) [23]: 0.20%
- percentage of the compound in the formulation (p/p) [24]: 0.20%

Compound: O=C1O[C@H]([C@@H](O)CO)C(O)=C1O [L-ascorbic acid]
- change in L-ascorbic acid concentration (formulation containing all the three ingredients, 55 days): no change
- concentration in the mixed formulation: 14.5%
- percentage of the compound in the formulation (p/p) [1]: 15.34%
- percentage of the compound in the formulation (p/p) [2]: 14.10%
- percentage of the compound in the formulation (p/p) [5]: 15.10%
- percentage of the compound in the formulation (p/p) [6]: 15.00%
- percentage of the compound in the formulation (p/p) [7]: 14.35%
- percentage of the compound in the formulation (p/p) [8]: 14.30%
- percentage of the compound in the formulation (p/p) [9]: 15.13%
- percentage of the compound in the formulation (p/p) [10]: 13.50%
- percentage of the compound in the formulation (p/p) [11]: 14.96%
- percentage of the compound in the formulation (p/p) [12]: 15.00%
- loss of L-ascorbic acid (single component formulation, 25° C., 55 days): 22%
- loss of L-ascorbic acid (single component formulation, 40° C., 55 days): 36%
- percentage of the compound in the formulation (p/p) [13]: 13.40%
- percentage of the compound in the formulation (p/p) [14]: 13.32%
- percentage of the compound in the formulation (p/p) [15]: 8.80%
- percentage of the compound in the formulation (p/p) [16]: 10.80%
- percentage of the compound in the formulation (p/p) [17]: 10.50%
- percentage of the compound in the formulation (p/p) [18]: 10.43%
- percentage of the compound in the formulation (p/p) [19]: 14.86%
- percentage of the compound in the formulation (p/p) [20]: 8.46%
- percentage of the compound in the formulation (p/p) [22]: 8.60%
- percentage of the compound in the formulation (p/p) [23]: 9.00%
- percentage of the compound in the formulation (p/p) [24]: 9.60%
